# Experimental data reported in patent US12653191B2, “Active compound combinations” (Bayer Aktiengesellschaft, priority 2020, dated 2026).
# Read-outs that look alike come from different tables or passages of the source.
# Assays:
# [1] = tested on: Ustilago segetum var. avenae; test: in vitro-Test with fungal microorganisms, Method A (tables I1-I5); type: cell-based; conditions: alone, read-out: Efficacy %
# Method in brief: (§1)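 First, compound in methanol with alkylaryl-polyglycol-ether was dried down in the plate. Next, spore or mycelium suspension in potato dextrose broth was added and extinction read at 620 nm. After 3-5 days at 20° C, 85% RH, reading was repeated and efficacy scored against untreated wells.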
# Cercospora beticola [2] = test: in vitro-Test with fungal microorganisms, Method B (tables C11-C20); type: cell-based; conditions: Cercospora beticola, read-out: Efficacy %
# Method in brief: (§2)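 Steps: solvent evaporation leaves the compound coating the wells; fungus-inoculated liquid growth medium goes on top; absorbance at 600 nm is measured; incubation runs 3 to 7 days at 20° C. with 85% relative humidity. Inhibition is then read photometrically and expressed as efficacy against untreated control.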
# Parastagonospora nodorum [3] = test: in vitro-Test with fungal microorganisms, Method A (tables H1-H4); type: cell-based
# Procedure: Example: In Vitro-Test with Fungal Microorganisms
# Wells of 96-well microtiter plates are filled with 10 μl of a preparation of test compound or compound combination in methanol+emulsifier alkylaryl-polyglycol-ether. Thereafter, the solvent is evaporated in a hood. At the next step, 100 μl of liquid potato dextrose medium is given into each well, that has been amended with an appropriate concentration of spores or mycelium suspension of the test fungus.
# With the aid of a photometer, the extinction in all wells is measured at the wavelength of 620 nm.
# The microtiter plates are incubated at 20° C. and 85% relative humidity. The inhibition of growth is determined again photometrically 3-5 days after the application. Efficacy is calculated in relation to the untreated control, 0% efficacy means fungal growth as high as in untreated control while 100% efficacy means no fungal growth is measured.
# The data in tables A1 to A12, B1 to B14, C1 to C10, D1 to D8, E1 to E8, F1 to F11, G1 to G4, H1 to H4 and I1 to I5 were collected according to Method A. The data in tables A13 to A22, B15 to B18, C11 to C20, E9 to E16, F12 to F15, G5 to G15, H5 to H8, I6 to I11 and J1 to J11 were collected according to Method B.
# Botrytis cinerea [4] = test: in vitro-Test with fungal microorganisms, Method A (tables B1-B14); type: cell-based; conditions: Botrytis cinerea
# Method in brief: as §1
# Cordana musae [5] = test: in vitro-Test with fungal microorganisms, Method B (tables E9-E16); type: cell-based
# Method in brief: as §2
# [6] = tested on: Colletotrichum lindemuthianum; test: in vitro-Test with fungal microorganisms, Method A (tables D1-D8); type: cell-based; conditions: Colletotrichum lindemuthianum, read-out: Efficacy %
# Method in brief: as §1
# Fusarium culmorum [7] = test: in vitro-Test with fungal microorganisms, Method B (tables G5-G15); type: cell-based; conditions: Fusarium culmorum, read-out: Efficacy
# Method in brief: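 Efficacy, relative to untreated control (0% = growth as in control, 100% = no growth), from photometric growth measurement at 600 nm after 3 to 7 days at 20° C., 85% relative humidity. Compound applied in methanol+emulsifier, solvent evaporated, then spore/mycelium-amended liquid medium added.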
# Alternaria alternata = test: in vitro-Test with fungal microorganisms, Method B (tables A13-A22); type: cell-based; conditions: Alternaria alternata, read-out: Efficacy
# Method in brief: as §2
# Colletotrichum coccodes = test: in vitro-Test with fungal microorganisms, Method B (tables J1-J11); type: cell-based; conditions: Colletotrichum coccodes, read-out: Efficacy %
# Method in brief: as §2
# Diaporthe citri = test: in vitro-Test with fungal microorganisms, Method A (tables F1-F11); type: cell-based; conditions: Diaporthe citri, applied alone, read-out: Efficacy
# Method in brief: as §1
# Alternaria alternate = test: in vitro-Test with fungal microorganisms, Method A (tables A1-A12); type: cell-based, Alternaria alternata; conditions: Alternaria, applied alone, read-out: Efficacy %
# Method in brief: as §1
# [8] = tested on: Ustilago segetum var. avenae; test: in vitro-Test with fungal microorganisms, Method B (tables I6-I11); type: cell-based; conditions: read-out: Efficacy %
# Method in brief: as §2
# Cercospora beticola [9] = test: in vitro-Test with fungal microorganisms, Method A (tables C1-C10); type: cell-based; conditions: Cercospora beticola, read-out: Efficacy %
# Method in brief: as §1
# Botrytis cinerea [10] = test: in vitro-Test with fungal microorganisms, Method B (tables B15-B18); type: cell-based; conditions: Botrytis cinerea, alone, read-out: Efficacy %
# Method in brief: as §2
# Parastagonospora nodorum [11] = test: in vitro-Test with fungal microorganisms, Method B (tables H5-H8); type: cell-based; conditions: Parastagonospora nodorum, read-out: Efficacy
# Method in brief: as §2
# Cordana musae [12] = test: in vitro-Test with fungal microorganisms, Method A (tables E1-E8); type: cell-based; conditions: Neocordana musae, single substance, read-out: Efficacy %
# Method in brief: as §1
# Fusarium culmorum [13] = test: in vitro-Test with fungal microorganisms, Method A (tables G1-G4); type: cell-based; conditions: Fusarium culmorum, read-out: Efficacy
# Method in brief: as §1
smiles,measurement,setting,value
"CC1COC(Cn2cncn2)(c2ccc(Oc3ccc(Cl)cc3)cc2Cl)O1 (stereo not shown) [(1.002) difenoconazole, difenoconazole]",inhibition of growth at 0.008 ppm,[1]; 0.008 ppm,8%
same,inhibition of growth at 0.04 ppm,[1]; 0.04 ppm,14%
same,inhibition of growth at 1 ppm,[1]; 1.0 ppm,100%
same,inhibition of growth at 0.008 ppm,Cercospora beticola [2],5%
same,inhibition of growth at 0.04 ppm,Cercospora beticola [2],60%
same,inhibition of growth at 0.2 ppm,Cercospora beticola [2],98%
same,inhibition of growth at 1 ppm,Cercospora beticola [2]; 1 ppm,99%
same,inhibition of growth at 0.008 ppm,Cercospora beticola [2]; single compound,16%
same,inhibition of growth at 0.04 ppm,Cercospora beticola [2]; single compound,51%
same,inhibition of growth at 0.2 ppm,Cercospora beticola [2]; single compound,100%
same,Efficacy,Parastagonospora nodorum [3]; 0.04 ppm,22%
same,Efficacy,Parastagonospora nodorum [3]; 0.2 ppm,88%
same,inhibition of growth at 0.008 ppm,"Botrytis cinerea [4]; alone, 0.008 ppm, read-out: Efficacy %",8%
same,inhibition of growth at 0.04 ppm,"Botrytis cinerea [4]; alone, 0.04 ppm, read-out: Efficacy %",0%
same,inhibition of growth at 0.2 ppm,"Botrytis cinerea [4]; alone, 0.2 ppm, read-out: Efficacy %",0%
same,inhibition of growth at 1 ppm,"Botrytis cinerea [4]; alone, 1.0 ppm, read-out: Efficacy %",0%
same,inhibition of growth at 0.04 ppm,"Cordana musae [5]; Neocordana musae, single active, 0.04 ppm, read-out: Efficacy",0%
same,inhibition of growth at 0.2 ppm,"Cordana musae [5]; Neocordana musae, single active, 0.2 ppm, read-out: Efficacy",16%
same,inhibition of growth at 1 ppm,"Cordana musae [5]; Neocordana musae, single active, 1 ppm, read-out: Efficacy",20%
same,Efficacy %,"Cordana musae [5]; single substance, 0.04 ppm",0%
same,inhibition of growth at 0.008 ppm,"[6]; mixing partner alone, 0.008 ppm",0%
same,inhibition of growth at 0.04 ppm,"[6]; mixing partner alone, 0.04 ppm",2%
same,inhibition of growth at 0.2 ppm,"[6]; mixing partner alone, 0.2 ppm",0%
same,inhibition of growth at 1 ppm,"[6]; mixing partner alone, 1.0 ppm",16%
same,inhibition of growth at 0.04 ppm,"Fusarium culmorum [7]; 0.04 ppm, alone",26%
same,inhibition of growth at 0.04 ppm,"Alternaria alternata; single compound, 0.04 ppm",21%
same,inhibition of growth at 0.2 ppm,"Alternaria alternata; single compound, 0.2 ppm",53%
same,inhibition of growth at 1 ppm,"Alternaria alternata; single compound, 1 ppm",94%
same,inhibition of growth at 0.2 ppm,Colletotrichum coccodes; 0.2 ppm,0.31%
same,inhibition of growth at 1 ppm,Colletotrichum coccodes; single active compound at 1 ppm,24%
same,inhibition of growth at 0.04 ppm,Diaporthe citri; 0.04 ppm,0.04%
same,inhibition of growth at 0.04 ppm,Alternaria alternate; 0.04 ppm,10%
same,inhibition of growth at 0.2 ppm,Alternaria alternate; 0.2 ppm,28%
same,inhibition of growth at 1 ppm,Alternaria alternate; 1.0 ppm,96%
same,inhibition of growth at 0.008 ppm,[8]; 0.008 ppm,2%
same,inhibition of growth at 0.04 ppm,[8]; 0.04 ppm,40%
same,inhibition of growth at 0.2 ppm,[8]; 0.2 ppm,100%
same,inhibition of growth at 0.008 ppm,Cercospora beticola [9]; 0.008 ppm alone,5%
same,inhibition of growth at 0.008 ppm,Cercospora beticola [9]; 0.008 ppm,15%
same,inhibition of growth at 0.04 ppm,Cercospora beticola [9]; 0.04 ppm alone,20%
same,inhibition of growth at 0.04 ppm,Cercospora beticola [9]; 0.04 ppm,40%
same,inhibition of growth at 0.2 ppm,Cercospora beticola [9]; 0.2 ppm alone,79%
same,inhibition of growth at 0.2 ppm,Cercospora beticola [9]; 0.2 ppm,89%
same,inhibition of growth at 1 ppm,Cercospora beticola [9]; 1.0 ppm alone,99%
same,inhibition of growth at 1 ppm,Cercospora beticola [9]; 1.0 ppm,99%
same,inhibition of growth at 1 ppm,Botrytis cinerea [10]; 1 ppm,13%
same,inhibition of growth at 0.008 ppm,Parastagonospora nodorum [11]; 0.008 ppm,32%
same,inhibition of growth at 0.04 ppm,Parastagonospora nodorum [11]; 0.04 ppm,100%
same,inhibition of growth at 0.2 ppm,Parastagonospora nodorum [11]; 0.2 ppm,100%
same,inhibition of growth at 0.2 ppm,Cordana musae [12]; 0.2 ppm,0%
same,inhibition of growth at 1 ppm,Cordana musae [12]; 1.0 ppm,14%
"O=C(NCCc1ncc(C(F)(F)F)cc1Cl)c1ccccc1C(F)(F)F [(2.005) fluopyram, Fluopyram]",inhibition of growth at 0.8 ppm,[1]; 0.8 ppm,9%
same,inhibition of growth at 4 ppm,[1]; 4.0 ppm,10%
same,inhibition of growth at 20 ppm,[1]; 20.0 ppm,10%
same,inhibition of growth at 0.8 ppm,Cercospora beticola [2],31%
same,inhibition of growth at 4 ppm,Cercospora beticola [2],0%
same,inhibition of growth at 20 ppm,Cercospora beticola [2],56%
same,inhibition of growth at 0.8 ppm,Cercospora beticola [2]; single compound,11%
same,inhibition of growth at 4 ppm,Cercospora beticola [2]; single compound,0%
same,inhibition of growth at 20 ppm,Cercospora beticola [2]; single compound,7%
same,Efficacy,Parastagonospora nodorum [3]; 0.8 ppm,37%
same,Efficacy,Parastagonospora nodorum [3]; 4.0 ppm,44%
same,Efficacy,Parastagonospora nodorum [3]; 20.0 ppm,70%
same,inhibition of growth at 0.8 ppm,Botrytis cinerea [4]; read-out: Efficacy,69%
same,inhibition of growth at 4 ppm,Botrytis cinerea [4]; read-out: Efficacy,72%
same,inhibition of growth at 20 ppm,Botrytis cinerea [4]; read-out: Efficacy,100%
same,inhibition of growth at 0.8 ppm,"Botrytis cinerea [4]; alone, read-out: Efficacy %",65%
same,inhibition of growth at 4 ppm,"Botrytis cinerea [4]; alone, read-out: Efficacy %",75%
same,inhibition of growth at 20 ppm,"Botrytis cinerea [4]; alone, read-out: Efficacy %",75%
same,inhibition of growth at 4 ppm,"Cordana musae [5]; Neocordana musae, single active, 4 ppm, read-out: Efficacy",0%
same,inhibition of growth at 20 ppm,[6]; single active at 20.0 ppm,23%
same,inhibition of growth at 4 ppm,"Fusarium culmorum [7]; 4 ppm, alone",21%
same,inhibition of growth at 0.8 ppm,"Fusarium culmorum [7]; single active compound, 0.8 ppm",20%
same,inhibition of growth at 20 ppm,"Fusarium culmorum [7]; single active compound, 20 ppm",37%
same,inhibition of growth at 0.8 ppm,Alternaria alternata,61%
same,inhibition of growth at 4 ppm,Alternaria alternata,81%
same,inhibition of growth at 20 ppm,Alternaria alternata,88%
same,inhibition of growth at 0.8 ppm,Alternaria alternata; single compound,79%
same,inhibition of growth at 4 ppm,Alternaria alternata; single compound,81%
same,inhibition of growth at 20 ppm,Alternaria alternata; single compound,91%
same,inhibition of growth at 4 ppm,Colletotrichum coccodes; 4 ppm,14%
same,inhibition of growth at 0.8 ppm,Colletotrichum coccodes; single active compound at 0.8 ppm,0%
same,inhibition of growth at 4 ppm,Colletotrichum coccodes; single active compound at 4 ppm,0%
same,inhibition of growth at 4 ppm,Diaporthe citri; 4.0 ppm,15%
same,inhibition of growth at 4 ppm,Alternaria alternate; 4 ppm,63%
same,inhibition of growth at 20 ppm,Alternaria alternate; 20 ppm,82%
same,inhibition of growth at 20 ppm,[8]; 20 ppm,20%
same,inhibition of growth at 0.8 ppm,Cercospora beticola [9]; 0.8 ppm alone,0%
same,inhibition of growth at 4 ppm,Cercospora beticola [9]; 4.0 ppm alone,27%
same,inhibition of growth at 20 ppm,Cercospora beticola [9]; 20.0 ppm alone,39%
same,inhibition of growth at 0.8 ppm,Botrytis cinerea [10]; 0.8 ppm,51%
same,inhibition of growth at 4 ppm,Botrytis cinerea [10]; 4 ppm,79%
same,inhibition of growth at 20 ppm,Botrytis cinerea [10]; 20 ppm,100%
same,inhibition of growth at 4 ppm,Parastagonospora nodorum [11]; 4 ppm,35%
same,inhibition of growth at 20 ppm,Parastagonospora nodorum [11]; 20 ppm,59%
same,inhibition of growth at 0.8 ppm,"Fusarium culmorum [13]; 0.8 ppm, alone",0%
same,inhibition of growth at 4 ppm,"Fusarium culmorum [13]; 4.0 ppm, alone",0%
same,inhibition of growth at 20 ppm,"Fusarium culmorum [13]; 20.0 ppm, alone",16%
same,inhibition of growth at 0.8 ppm,"Fusarium culmorum [13]; Table G1, 0.8 ppm alone",0%
same,inhibition of growth at 4 ppm,"Fusarium culmorum [13]; Table G1, 4.0 ppm alone",0%
same,inhibition of growth at 20 ppm,"Fusarium culmorum [13]; Table G1, 20.0 ppm alone",21%
same,inhibition of growth at 0.8 ppm,Cordana musae [12]; 0.8 ppm,0%
same,inhibition of growth at 4 ppm,Cordana musae [12]; 4.0 ppm,1%
